Test results published in patent US20230085307A1, “PYRIDAZINONE COMPOUND AND HERBICIDE” (NISSAN CHEMICAL CORPORATION, priority 2019, published 2023).

Columns and labels:
late watergrass = test: Test Example 2: herbicidal activity, application during weed generation under submerged conditions (Table 17, symbol A); assay type: in vivo, late watergrass (Echinochloa oryzicola); conditions: AAH 320 g/ha; application during weed generation, submerged conditions
Procedure, shortened: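 Wagner pot, alluvial soil, 4 cm flood; mixed sowing of all species; greenhouse 25° C.–30° C. Emulsifiable formulation, water-diluted to predetermined dose, applied to paddy water at 1–2 leaf stage. Effect rated at 3 wk using the earlier test's scoring criteria.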

barnyard grass [1] = test: Test Example 3: herbicidal effect by foliage application, Wagner pot (Table 18, symbol H); assay type: in vivo, barnyard grass (Echinochloa crus-galli); conditions: amount of applied herbicide 320 g/ha
Procedure, shortened: (§1)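 Plants were sown in alluvial soil held under 0.1–0.5 cm standing water and grown 14 days in a greenhouse at 25–30 °C. An emulsifiable formulation, water-diluted to the set dose, was then sprayed onto the foliage, and effects were scored three weeks later using previously defined criteria.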

Chinese sprangletop = test: Test Example 3: herbicidal effect by foliage application, Wagner pot (Table 18, symbol D); assay type: in vivo, chinese sprangletop (Leptochloa chinensis); conditions: amount of applied herbicide 320 g/ha
Procedure, shortened: as §1

southern crabgrass = test: Test Example 4: herbicidal effect by soil treatment (Table 19, symbol F); assay type: in vivo, southern crabgrass (Digitaria ciliaris); conditions: amount of applied herbicide 320 g/ha
Procedure, shortened: (§2)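 Emulsion of test compound, water-diluted to predetermined amount, sprayed on soil after sowing (seed depth ~1.5 cm, sterilized diluvial soil). Greenhouse, 25–30° C. Effect graded at three weeks post-spray.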

barnyard grass [2] = test: Test Example 4: herbicidal effect by soil treatment (Table 19, symbol H); assay type: in vivo, barnyard grass (Echinochloa crus-galli); conditions: amount of applied herbicide 320 g/ha
Procedure, shortened: as §2

blackgrass [3] = test: Test Example 4: herbicidal effect by soil treatment (Table 19, symbol J); assay type: in vivo, blackgrass (Alopecurus myosuroides); conditions: amount of applied herbicide 320 g/ha
Procedure, shortened: as §2

redroot pigweed [4] = test: Test Example 4: herbicidal effect by soil treatment (Table 19, symbol N); assay type: in vivo, redroot pigweed (Amaranthus retroflexus); conditions: amount of applied herbicide 320 g/ha
Procedure, shortened: as §2

lambsquarters = test: Test Example 4: herbicidal effect by soil treatment (Table 19, symbol O); assay type: in vivo, lambsquarters (Chenopodium album); conditions: amount of applied herbicide 320 g/ha
Procedure, shortened: as §2

chickweed = test: Test Example 4: herbicidal effect by soil treatment (Table 19, symbol P); assay type: in vivo, common chickweed (Stellaria media); conditions: amount of applied herbicide 320 g/ha
Procedure, shortened: as §2

barnyard grass [5] = test: Test Example 5: herbicidal effect by foliage application, plastic box (Table 20, symbol H); assay type: in vivo, barnyard grass (Echinochloa crus-galli); conditions: foliage application, 320 g/ha, evaluated three weeks after application
Procedure, shortened: (§3)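 Post-emergence foliar test in sterilized diluvial soil. Compound applied as water-diluted emulsion at a predetermined rate to 14-day-old plants; evaluation at three weeks.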

wild oat = test: Test Example 5: herbicidal effect by foliage application, plastic box (Table 20, symbol I); assay type: in vivo, wild oat (Avena fatua); conditions: foliage application, 320 g/ha, evaluated three weeks after application
Procedure, shortened: as §3

blackgrass [6] = test: Test Example 5: herbicidal effect by foliage application, plastic box (Table 20, symbol J); assay type: in vivo, blackgrass (Alopecurus myosuroides); conditions: foliage application, 320 g/ha, evaluated three weeks after application
Procedure, shortened: as §3

Italian ryegrass = test: Test Example 5: herbicidal effect by foliage application, plastic box (Table 20, symbol K); assay type: in vivo, Italian ryegrass (Lolium multiflorum); conditions: foliage application, 320 g/ha, evaluated three weeks after application
Procedure, shortened: as §3

velvetleaf = test: Test Example 5: herbicidal effect by foliage application, plastic box (Table 20, symbol M); assay type: in vivo, velvetleaf (Abutilon theophrasti); conditions: foliage application, 320 g/ha, evaluated three weeks after application
Procedure, shortened: as §3

redroot pigweed [7] = test: Test Example 5: herbicidal effect by foliage application, plastic box (Table 20, symbol N); assay type: in vivo, redroot pigweed (Amaranthus retroflexus); conditions: foliage application, 320 g/ha, evaluated three weeks after application
Procedure, shortened: as §3

persian speedwell = test: Test Example 5: herbicidal effect by foliage application, plastic box (Table 20, symbol R); assay type: in vivo, Persian speedwell (Veronica persica); conditions: foliage application, 320 g/ha, evaluated three weeks after application
Procedure, shortened: as §3

SMILES	herbicidal effect rating, A: late watergrass (late watergrass)	herbicidal effect on H: barnyard grass (barnyard grass [1])	herbicidal effect on D: Chinese sprangletop (Chinese sprangletop)	F: southern crabgrass, herbicidal effect rating (southern crabgrass)	H: barnyard grass, herbicidal effect rating (barnyard grass [2])	J: blackgrass, herbicidal effect rating (blackgrass [3])	N: redroot pigweed, herbicidal effect rating (redroot pigweed [4])	O: lambsquarters, herbicidal effect rating (lambsquarters)	P: chickweed, herbicidal effect rating (chickweed)	herbicidal effect on H: barnyard grass (criteria 0-5) (barnyard grass [5])	herbicidal effect on I: wild oat (criteria 0-5) (wild oat)	herbicidal effect on J: blackgrass (criteria 0-5) (blackgrass [6])	herbicidal effect on K: Italian ryegrass (criteria 0-5) (Italian ryegrass)	herbicidal effect on M: velvetleaf (criteria 0-5) (velvetleaf)	herbicidal effect on N: redroot pigweed (criteria 0-5) (redroot pigweed [7])	herbicidal effect on R: persian speedwell (criteria 0-5) (persian speedwell)
Cc1nn(C)c(=O)c(-c2c(-c3ccc(Br)cc3)sc3ccc(F)cc23)c1O [2-205]	2 (Herbicidal rate of 20% or more and less than 40%)	5 (Herbicidal rate of 90% or more (almost completely withered))	4 (Herbicidal rate of 70% or more and less than 90%)	5 (Herbicidal rate of 90% or more (almost completely withered))	4 (Herbicidal rate of 70% or more and less than 90%)	0 (Herbicidal rate of 5% or less (almost no effect))	5 (Herbicidal rate of 90% or more (almost completely withered))	5 (Herbicidal rate of 90% or more (almost completely withered))	3 (Herbicidal rate of 40% or more and less than 70%)	5 (Herbicidal rate of 90% or more (almost completely withered))	4 (Herbicidal rate of 70% or more and less than 90%)	4 (Herbicidal rate of 70% or more and less than 90%)	5 (Herbicidal rate of 90% or more (almost completely withered))	5 (Herbicidal rate of 90% or more (almost completely withered))	5 (Herbicidal rate of 90% or more (almost completely withered))	5 (Herbicidal rate of 90% or more (almost completely withered))
CCCC(=O)Oc1c(C)nn(C)c(=O)c1-c1c(-c2ccc(Br)cc2)sc2ccc(F)cc12 [2-206]	4 (Herbicidal rate of 70% or more and less than 90%)	5 (Herbicidal rate of 90% or more (almost completely withered))	4 (Herbicidal rate of 70% or more and less than 90%)	1 (Herbicidal rate of 5% or more and less than 20%)	2 (Herbicidal rate of 20% or more and less than 40%)	0 (Herbicidal rate of 5% or less (almost no effect))	5 (Herbicidal rate of 90% or more (almost completely withered))	4 (Herbicidal rate of 70% or more and less than 90%)	4 (Herbicidal rate of 70% or more and less than 90%)	5 (Herbicidal rate of 90% or more (almost completely withered))	4 (Herbicidal rate of 70% or more and less than 90%)	4 (Herbicidal rate of 70% or more and less than 90%)	5 (Herbicidal rate of 90% or more (almost completely withered))	5 (Herbicidal rate of 90% or more (almost completely withered))	5 (Herbicidal rate of 90% or more (almost completely withered))	5 (Herbicidal rate of 90% or more (almost completely withered))
